What follows are compounds tested against BTK (Homo sapiens, UniProt Q06187) (assay: biochemical). Conditions: read-out: BTK inhibition (%).
Sequence of BTK (Q06187 402-655 limits assumed): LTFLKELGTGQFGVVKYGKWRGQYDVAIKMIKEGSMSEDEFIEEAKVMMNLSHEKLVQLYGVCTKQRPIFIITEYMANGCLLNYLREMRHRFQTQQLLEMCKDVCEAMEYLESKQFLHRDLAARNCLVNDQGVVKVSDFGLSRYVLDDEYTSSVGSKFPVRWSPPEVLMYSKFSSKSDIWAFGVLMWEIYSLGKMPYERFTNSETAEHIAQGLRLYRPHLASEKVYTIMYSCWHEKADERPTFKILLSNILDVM
In the case of `Cc1cc(N2CCN([C@@H]3CN[C@H](C(=O)N4CCSC4)C3)CC2)n(-c2ccccc2)n1` [PCM-0214840], the inhibition at 10 µM is reported as 0.8%. `CO[C@H]1C[C@H](O[C@H]2CC[C@]3(C)[C@H]4CC[C@]5(C)[C@@H](C6=CC(=O)OC6)CC[C@]5(O)[C@@H]4CC[C@]3(O)C2)O[C@H](C)[C@H]1O[C@@H]1O[C@H](CO)[C@@H](O)[C@H](O)[C@H]1O` [PCM-0216449] was tested, and the inhibition at 10 µM was 11.6%.

Same assay, conditions: read-out: BTK inhibition (%), 0.75 uM BTK, […] probe 3l, 15 min preincubation
Work on `COC(=O)[C@@H]1CC2=CC(=O)CC[C@]2(C)[C@@]23O[C@@H]2C[C@@]2(C)[C@@H](CC[C@@]24CCC(=O)O4)[C@H]13` [PCM-0215188] yielded an inhibition at 10 µM of -18.7%. Compound `CC(C)=CCC[C@](C)(O[C@@H]1O[C@H](CO)[C@@H](O)[C@H](O)[C@H]1O)[C@H]1CC[C@]2(C)[C@@H]1[C@H](O)C[C@@H]1[C@@]3(C)CC[C@H](O)C(C)(C)[C@@H]3[C@@H](O[C@@H]3O[C@H](CO)[C@@H](O)[C@H](O)[C@H]3O[C@@H]3OC[C@@H](O)[C@H](O)[C@H]3O)C[C@]12C` [PCM-0215161] has an inhibition at 10 µM of 5.5%. For `C[C@H]1CC[C@@]2(O)C(C)(C)[C@@H]3CC[C@@]2(C)[C@H]1C3` [PCM-0215010], the inhibition at 10 µM was 2.8%. `O=C(O)c1cc(C(=O)O)c2c(n1)C(=O)C(=O)c1cc(C(=O)O)[nH]c1-2` [PCM-0216638] was tested, and the inhibition at 10 µM was -0.8%. For `O=C(O)c1ccc(Nc2ncc3c(n2)-c2ccc(Cl)cc2C(c2c(F)cccc2F)=NC3)cc1` [PCM-0095077], the inhibition at 10 µM was 79.3%. With `CC(C)(Oc1ccc(Cl)cc1)C(=O)OCCOC(=O)c1cccnc1` [PCM-0214787] the inhibition at 10 µM was -6.2%. `CN1CCN(c2ccc(-c3ccncc3-c3cc(F)c(O)c(F)c3)cc2)CC1` [PCM-0215608] showed an inhibition at 10 µM of 6.2%. With `CC[C@H](C)n1cc(C)c2c(C(=O)NCc3c(C)cc(C)[nH]c3=O)cc(-c3ccc(N4CCNCC4)nc3)cc21` [PCM-0215444] the inhibition at 10 µM was -2.6%. Compound `COc1cc(N2CCC(N3CCN(C)CC3)CC2)ccc1Nc1ncc(Cl)c(Nc2ccccc2S(=O)(=O)C(C)C)n1` [PCM-0094890] has an inhibition at 10 µM of 88.5%. With `OC(CN1CCN(c2cccc(Cl)c2)CC1)C(c1ccccc1)c1ccccc1` (stereo not drawn) [PCM-0095352] the inhibition at 10 µM was 37.4%. For `O=C(O)CCn1c(O)c(C2=c3cc(Cl)ccc3=NC2=O)sc1=S` [PCM-0215854], the inhibition at 10 µM was 0.8%. With `O=C(O)c1c[nH]c2cc(Cl)c(-c3ccc(C4(O)CCC4)cc3)cc12` [PCM-0215881] the inhibition at 10 µM was 24.7%. `CN(C)[C@@H](CCOc1cccc2ccccc12)c1ccccc1` [PCM-0095178] showed an inhibition at 10 µM of 6.2%. In the case of `CNC[C@H](O)[C@@H](O)[C@H](O)[C@H](O)CO` [PCM-0086373], the inhibition at 10 µM is reported as -10.1%. For `Cc1cccc(Nc2ccccc2C(=O)O)c1C` [PCM-0085867], the inhibition at 10 µM was 17.2%. For `OC[C@H]1O[C@@](CO)(OC[C@@]2(O[C@H]3O[C@H](CO)[C@@H](O)[C@H](O)[C@H]3O)O[C@H](CO)[C@@H](O)[C@@H]2O)[C@@H](O)[C@@H]1O` [PCM-0216401], the inhibition at 10 µM was 21.6%. `CC(C)=CCC[C@](C)(O[C@@H]1O[C@H](CO[C@@H]2OC[C@@H](O)[C@H](O)[C@H]2O)[C@@H](O)[C@H](O)[C@H]1O)[C@H]1CC[C@]2(C)[C@@H]1[C@H](O)C[C@@H]1[C@@]3(C)CC[C@H](O[C@@H]4O[C@H](CO)[C@@H](O)[C@H](O)[C@H]4O[C@@H]4O[C@H](CO)[C@@H](O)[C@H](O)[C@H]4O)C(C)(C)[C@@H]3CC[C@]12C` [PCM-0216464] was tested, and the inhibition at 10 µM was 4.6%. `CCOC(=O)c1csc(Nc2ccc(Cl)cc2)n1` [PCM-0215549] showed an inhibition at 10 µM of 17.8%. Compound `Cc1ncc(Cl)cc1NCc1ccc(C(=O)N[C@@H](CC2CCCC2)C(=O)NC2CC2)s1` [PCM-0215421] has an inhibition at 10 µM of 15.4%. `COC(=O)[C@@H](N)CCCN=C(N)N[N+](=O)[O-]` [PCM-0215172] gave an inhibition at 10 µM of 19.6%. With `CC1(C)CCC[C@]2(C)[C@H]3CC(=O)O[C@]3(C)CC[C@@H]12` [PCM-0090818] the inhibition at 10 µM was -18.7%. `CC(C)(C)c1cc(C=C(C#N)C#N)cc(C(C)(C)C)c1O` [PCM-0064935] showed an inhibition at 10 µM of 15.2%. `COc1c(O)c(C)cc2c1C(=O)c1c(O)cccc1C2=O` [PCM-0216457] showed an inhibition at 10 µM of 64.1%. `COC(=O)c1ccc2c(c1)[nH]c1ncnc(NCCCN3CCCCC3)c12` [PCM-0215451] was tested, and the inhibition at 10 µM was -0.8%. `Cc1nnc(SCC2=C(C(=O)O)N3C(=O)[C@@H](NC(=O)Cn4cc(Cl)c(=O)c(Cl)c4)[C@H]3SC2)s1` [PCM-0215135] showed an inhibition at 10 µM of -13.2%. Work on `CN1CCN2c3ncccc3Cc3ccccc3C2C1` (stereo not drawn) [PCM-0086153] yielded an inhibition at 10 µM of 12.5%. In the case of `O=C1Cc2cc(CCN3CCN(c4nsc5ccccc45)CC3)c(Cl)cc2N1` [PCM-0065598], the inhibition at 10 µM is reported as 52.1%. Work on `Nc1ccccc1NC(=O)c1ccc(CNC(=O)OCc2cccnc2)cc1` [PCM-0094980] yielded an inhibition at 10 µM of 9.7%. `CNc1nc(-c2ccc3c(N)n[nH]c3c2)cc(N2C[C@@H](C(=O)NC3CCCCC3)CC[C@H]2C)n1` [PCM-0095768] gave an inhibition at 10 µM of 24.1%. Work on `O=C1NC(=O)[C@@H](c2cn3c4c(cccc24)CCC3)[C@@H]1c1c[nH]c2ccccc12` [PCM-0095697] yielded an inhibition at 10 µM of 29%. Compound `CC(C)C[C@H](NC(=O)[C@H](CCc1ccccc1)NC(=O)CN1CCOCC1)C(=O)N[C@@H](Cc1ccccc1)C(=O)N[C@@H](CC(C)C)C(=O)[C@@]1(C)CO1` [PCM-0095475] has an inhibition at 10 µM of -17.1%. Compound `C[N+]1(C)CCCC(OC(=O)C(O)(c2ccccc2)c2ccccc2)C1` (stereo not drawn) [PCM-0215256] has an inhibition at 10 µM of -7.8%. Compound `C[C@@H](O)[C@H]1C(=O)N2C(C(=O)[O-])=C(SC3Cn4cnc[n+]4C3)[C@H](C)[C@H]12` (stereo partly drawn) [PCM-0215353] has an inhibition at 10 µM of -18.7%. `COc1ccc(-n2nc(C(N)=O)c3c2C(=O)N(c2ccc(N4CCCCC4=O)cc2)CC3)cc1` [PCM-0095150] was tested, and the inhibition at 10 µM was -7.8%. In the case of `Cn1c([N+](=O)[O-])cnc1COC(N)=O` [PCM-0086329], the inhibition at 10 µM is reported as -12.5%. In the case of `CCOCCn1c(C2CCN(CCc3ccc(C(C)(C)C(=O)O)cc3)CC2)nc2ccccc21` [PCM-0215887], the inhibition at 10 µM is reported as 10.2%. `COC(=O)c1cc(O)c(O)c(O)c1` [PCM-0215013] gave an inhibition at 10 µM of 17.9%. Compound `CN(C)CCc1c[nH]c2ccc(C[C@H]3COC(=O)N3)cc12` [PCM-0090594] has an inhibition at 10 µM of 17.1%. Work on `COc1cc2ncnc(Nc3ccc(O)c(Br)c3)c2cc1OC` [PCM-0095533] yielded an inhibition at 10 µM of 33.8%. `CN([C@@H](Cc1ccc(OS(=O)(=O)c2cccc3cnccc23)cc1)C(=O)N1CCN(c2ccccc2)CC1)S(=O)(=O)c1cccc2cnccc12` [PCM-0215309] showed an inhibition at 10 µM of 2.1%. Compound `O=C(CCCCCCC(=O)N/N=C/c1ccc(N(c2ccccc2)c2ccccc2)cc1)NO` [PCM-0215937] has an inhibition at 10 µM of 15.4%. `CCCCNC(=O)NS(=O)(=O)c1ccc(C)cc1` [PCM-0064855] showed an inhibition at 10 µM of -11.7%. Compound `O=C1Nc2ccccc2C1=O` [PCM-0214846] has an inhibition at 10 µM of 11.7%. With `NCCCC[C@H](NC(=O)[C@@H]1CCCN1C(=O)[C@@H]1CSSC[C@H](N)C(=O)N[C@@H](Cc2ccc(O)cc2)C(=O)N[C@@H](Cc2ccccc2)C(=O)N[C@@H](CCC(N)=O)C(=O)N[C@@H](CC(N)=O)C(=O)N1)C(=O)NCC(N)=O` [PCM-0216267] the inhibition at 10 µM was -19.6%. For `COc1cc(O)c2c(c1)C(=O)c1cc(C)cc(O)c1C2=O` [PCM-0088700], the inhibition at 10 µM was 11.1%. Compound `CC(C)=CCC/C(C)=C\CO` [PCM-0216032] has an inhibition at 10 µM of 3.1%. For `NC(=O)N1CCC(CC(=O)N2CCC([C@H]3c4ncc(Br)cc4CCc4cc(Cl)cc(Br)c43)CC2)CC1` [PCM-0095392], the inhibition at 10 µM was 32.7%. In the case of `CN(C)C(=O)[C@H](O)[C@H](Cc1ccccc1)NC(=O)c1cc2cc(Cl)ccc2[nH]1` [PCM-0065218], the inhibition at 10 µM is reported as 5.4%. `COc1cc2c(cc1O)C[C@@H]1NCCc3cc(OC)c(O)c-2c31` [PCM-0216385] gave an inhibition at 10 µM of 6.2%. With `COc1ccc(-c2oc3c(CC=C(C)C)c(O[C@@H]4O[C@H](CO)[C@@H](O)[C@H](O)[C@H]4O)cc(O)c3c(=O)c2O[C@@H]2O[C@@H](C)[C@H](O)[C@@H](O)[C@H]2O[C@@H]2OC[C@@H](O)[C@H](O)[C@H]2O)cc1` [PCM-0216511] the inhibition at 10 µM was -8.5%. Compound `C[C@]1(O)C[C@@H](O)[C@@H]2C=CO[C@@H](O[C@@H]3O[C@H](CO)[C@@H](O)[C@H](O)[C@H]3O)[C@@H]21` [PCM-0216407] has an inhibition at 10 µM of -5.4%. Compound `O=S(=O)(O)CCS` [PCM-0086246] has an inhibition at 10 µM of -3.1%. Compound `CCc1c2c(nc3ccccc13)-c1cc3c(c(=O)n1C2)COC(=O)[C@]3(O)CC` [PCM-0215967] has an inhibition at 10 µM of -20.8%. Compound `Cn1cc[nH]c1=S` [PCM-0086540] has an inhibition at 10 µM of 14.8%. For `O=C(Nc1cccc(C(F)(F)F)c1)c1cccc2cc(Oc3cc(CO)ncn3)ccc12` [PCM-0215724], the inhibition at 10 µM was -0.7%. Work on `CC(NC(=O)c1ccccc1N=Cc1c(O)ccc2ccccc12)c1ccccc1` (stereo not drawn) [PCM-0095400] yielded an inhibition at 10 µM of 9%. In the case of `COc1cc(OC)c(C(=O)CCCN2CCCC2)c(OC)c1` [PCM-0085999], the inhibition at 10 µM is reported as -12.5%. `Cc1ncc(CCCN(C)C)cc1Nc1ncc2c(n1)-c1ccc(C(F)(F)F)cc1NC(=S)C2` [PCM-0214732] was tested, and the inhibition at 10 µM was 24.1%. Compound `CCN(CC)Cc1ccc2cc(COC(=O)Nc3ccc(C(=O)NO)cc3)ccc2c1` [PCM-0095219] has an inhibition at 10 µM of -10.1%. In the case of `CCOC(=O)COc1ccc(/C=C2\SC(=S)NC2=O)cc1OC` [PCM-0215662], the inhibition at 10 µM is reported as 84.2%. In the case of `CCOC(=O)[C@H](CCc1ccccc1)N[C@@H](C)C(=O)N1CCC[C@H]1C(=O)O` [PCM-0085929], the inhibition at 10 µM is reported as 5.4%. `C=CCc1cc(OC)c(OC)c(OC)c1` [PCM-0215912] showed an inhibition at 10 µM of 3.1%. `O=C(NS(=O)(=O)c1ccc(Br)s1)c1ccc(Cl)cc1Cl` [PCM-0095739] gave an inhibition at 10 µM of -10%. Work on `CC(=O)OCC1=C(C(=O)O)N2C(=O)[C@@H](NC(=O)CSc3ccncc3)[C@H]2SC1` [PCM-0215254] yielded an inhibition at 10 µM of 3.1%. `O=C(/C=C/c1ccc(O[C@@H]2O[C@H](CO)[C@@H](O)[C@H](O)[C@H]2O)cc1)c1ccc(O)cc1O` [PCM-0216527] showed an inhibition at 10 µM of 19.3%. Work on `COC(=O)N[C@H](C(=O)N1CC2(CC2)C[C@H]1c1ncc(-c2ccc3c(c2)C(F)(F)c2cc(-c4ccc5nc([C@@H]6[C@H]7CC[C@H](C7)N6C(=O)[C@@H](NC(=O)OC)C(C)C)[nH]c5c4)ccc2-3)[nH]1)C(C)C` [PCM-0215396] yielded an inhibition at 10 µM of 74.9%. Work on `CC[C@@H]1/C=C(\C)C[C@H](C)C[C@H](OC)[C@H]2O[C@@](O)(C(=O)C(=O)N3CCCC[C@H]3C(=O)O[C@H](/C(C)=C/[C@@H]3CC[C@H](Cl)[C@H](OC)C3)[C@H](C)[C@@H](O)CC1=O)[C@H](C)C[C@@H]2OC` [PCM-0214690] yielded an inhibition at 10 µM of -13.8%.

— publication PMC8041284, “Tunable Methacrylamides for Covalent Ligand Directed Release Chemistry” (Journal of the American Chemical Society, 2021)
